Experimental findings from PMC10288505, “Photoswitchable Calixarene Activators for Controlled Peptide Transport across Lipid Membranes” (Journal of the American Chemical Society, 2023) are described below.

Data set [1] is described as follows: Fluorescence titration of lucigenin dye with calixarene host (1:1 binding model). Particulars: association constant, 1:1 host:guest model, 5 mM phosphate buffer pH 7.3, mean ± SD of triplicate. From the text:
(§1) The binding affinity of the anionic calixarene activators toward cationic peptides was investigated using a small library of highly hydrophilic oligoarginines, from 3 to 8 residues. These peptides are not able to spontaneously transverse zwitterionic artificial membranes in vesicle assays, which allows the accurate evaluation of the calixarenes 1 and 2 as counterion activators without interferences from the transport of the peptide alone.[43]−[45] First, the formation of host–guest complexes between 1/2 and the selected peptides was verified by indicator displacement assays using lucigenin (LCG) as the fluorescent indicator.[46] As previously reported for other sulfonatocalixarene derivatives,[46] the formation of host–guest binding pairs between calixarenes 1/2 in the E- and Z-forms and LCG results in significant static fluorescence quenching (see Figure 2A and Figures S26 and S27). Quantitative analysis of the fluorescence titration data using a 1:1 host:guest binding model allows the determination of the respective binding constants (K) reported in Table 1. As can be observed, both 1/2 display high affinity for the LCG dye, on the 10^7 M^–1 range, which seems to be independent of the nature and conformation of the azobenzene arm. […] The host:LCG binding pairs were then employed in the above-mentioned indicator displacement assays to investigate the binding affinity of oligoarginines toward 1 and 2 (see Figure 2B and Figures S29–S33).
Figure 2 (A) Fluorescence titration of the lucigenin dye (LCG, 1.5 μM) with increasing concentrations of E-2 in water (5 mM phosphate buffer, pH 7.3). (B) Indicator displacement titration of hexaarginine (R6) using E-2:LCG as the reporter pair (5 mM phosphate buffer, pH 7.3). LCG and E-2 concentrations were fixed at 4 and 4.3 μM, respectively. […]
The binding affinities of the counterion activators and peptide complexes were analyzed by indicator displacement assays. […] Firstly, the affinity for LCG was calculated for each of the activators, by titrations followed by fluorescence spectroscopy leading to almost full quenching of the emission. […]
Figure S26 - Fluorescence titration of the lucigenin dye with increasing concentrations of A) E-1 and B) Z–1 in water (5 mM phosphate buffer pH 7.3). […]
Figure S27 - Fluorescence titrations of the lucigenin dye (LCG, 0.2 µM, except for the first E-2 titration were [LCG] = 1.5 µM ) with increasing concentrations of (A) E-2 and (B) Z-2 in water (5 mM phosphate buffer pH 7.3). […]
Figure S28 - Fluorescence titrations of the lucigenin dye (LCG, 0.2 µM) with increasing concentrations of SC4 in water (5 mM phosphate buffer pH 7.3). […]

In a further data set the test system is R4. As to the kind of experiment: Indicator displacement assay with host:LCG reporter pair, guest R4. The format is binding. Particulars: association constant, competitive dye displacement with LCG, 5 mM phosphate buffer pH 7.3, mean ± SD of triplicate.
From the text: as §1
The binding affinities of the counterion activators and peptide complexes were analyzed by indicator displacement assays. The fluorescent dye chosen for these experiments was lucigenin (LCG) due to its complex with the receptor SC4 being well characterized and due to the high variation of emission between its bound and free form. Firstly, the affinity for LCG was calculated for each of the activators, by titrations followed by fluorescence spectroscopy leading to almost full quenching of the emission. For the competitive assays, a concentration of LCG and activator was chosen in order to have approximately 90% of complexed dye and that mixture was then titrated with each of the peptides, leading to the regaining of emission when LCG was release from the complex.
Figure S26 - Fluorescence titration of the lucigenin dye with increasing concentrations of A) E-1 and B) Z–1 in water (5 mM phosphate buffer pH 7.3). LCG concentration was fixed 0.2 µM in all experiments, except for the first E-1 titrations were [LCG]
(1 picture or pasted object on this page, not shown here)
Figure S29 - Indicator displacement titration of the several oligoarginines A) R3 B) R4 C) R6 and D) R8, using SC4:LCG as the reporter pair (5 mM phosphate buffer pH 7.3). LCG and SC4 concentrations were fixed at A) 0.22 and 0.50 µM, for all three replicates, B) 0.22 and 4.7 µM for the first titration and 0.22 and 4.3 µM for the remaining two replicates, C) 0.22 and 0.45 µM and 1.1 and 0.85 µM and D) 0.28 and 0.43 µM and 1.1 and 0.85 µM, respectively, from left to right.
Figure S30 - Indicator displacement titration of the several oligoarginines A) R3 B) R4 C) R6 and D) R8, using E-1:LCG as the reporter pair (5 mM phosphate buffer pH 7.3) LCG and E-1 concentrations were fixed at A) 0.11 and 0.25 µM, for all three replicates, B) 0.22 and 0.5 µM, for the first two titrations and 0.22 and 0.23 µM for the remaining replicate, C) 4.0 and 3.8 µM and 0.22 and 0.5 µM, D) 4 and 3 µM and 0.22 and 0.5 µM, respectively, from left to right. […]

Data set [2] can be described thus: Photochemical characterisation (UV–vis absorption, 1H NMR) and thermal Z→E isomerization. The format is physicochemical. The settings on record: for Fraction of E isomer in the photostationary state (PSS): irradiation of the Z-forms at 500 nm; for Thermal stability of the Z isomer: room temperature, time frame of the experiments. An excerpt:
The photochromic properties of 1 and 2 were investigated in diluted aqueous solution by UV–vis absorption spectroscopy and in CD3OD by ^1H NMR.
On the other hand, irradiation of the Z-forms at λirr = 500 nm originates a photostationary state (PSS) composed of 70 and 80% of E-1 (Φ1Z → E = 0.6) and E-2 (Φ2Z → E = 0.5), respectively (Figure 1 and Figure S23). As generally observed for other azobenzene photoswitches,[42] the E isomers can be quantitatively recovered in the dark through the thermal Z → E isomerization, with 1 and 2 presenting activation energies of 215 and 93 kJ/mol, respectively (Figures S24 and S25).

Take `O=S(=O)([O-])c1cc2c(O)c(c1)Cc1cc(S(=O)(=O)[O-])cc(c1O)Cc1cc(S(=O)(=O)[O-])cc(c1OCCCCCCOc1ccc(/N=N/c3ccccc3)cc1)Cc1cc(S(=O)(=O)[O-])cc(c1O)C2.[Li+].[Li+].[Li+].[Li+]` [E-1]: the “Apparent affinity constant K for LCG” value in data set [1] is “(2.5 ± 0.7) × 10^7 M^–1”. For the same compound, the “Apparent affinity constant K for R4” value in the data set on R4 is reported as “(3.9 ± 0.3) × 10^7 M^–1”. Further, the “Fraction of E isomer in the photostationary state (PSS)” value in data set [2] amounted to 70%.
For `CCCCc1ccc(/N=N/c2ccc(OCCCOc3c4cc(S(=O)(=O)[O-])cc3Cc3cc(S(=O)(=O)[O-])cc(c3O)Cc3cc(S(=O)(=O)[O-])cc(c3O)Cc3cc(S(=O)(=O)[O-])cc(c3O)C4)cc2)cc1.[Li+].[Li+].[Li+].[Li+]` [E-2], in that order: “(2.6 ± 0.7) × 10^7 M^–1”, “(1.2 ± 0.6) × 10^8 M^–1” and 80%.
As for `O=S(=O)([O-])c1cc2c(O)c(c1)Cc1cc(S(=O)(=O)[O-])cc(c1O)Cc1cc(S(=O)(=O)[O-])cc(c1OCCCCCCOc1ccc(/N=N\c3ccccc3)cc1)Cc1cc(S(=O)(=O)[O-])cc(c1O)C2.[Li+].[Li+].[Li+].[Li+]` [Z-1], the “Apparent affinity constant K for LCG” value in data set [1] is on record as “(2.3 ± 0.4) × 10^7 M^–1”. Moreover, the “Apparent affinity constant K for R4” value in the data set on R4 is recorded as “(3.2 ± 0.7) × 10^7 M^–1”. Besides, in data set [2], the “Thermal stability of the Z isomer” value was “minimal thermal interconversion at room temperature”.
For `CCCCc1ccc(/N=N\c2ccc(OCCCOc3c4cc(S(=O)(=O)[O-])cc3Cc3cc(S(=O)(=O)[O-])cc(c3O)Cc3cc(S(=O)(=O)[O-])cc(c3O)Cc3cc(S(=O)(=O)[O-])cc(c3O)C4)cc2)cc1.[Li+].[Li+].[Li+].[Li+]` [Z-2], in that order: “(3.4 ± 0.8) × 10^7 M^–1”, “(7.8 ± 1.3) × 10^7 M^–1” and “minimal thermal interconversion at room temperature”.
